Test results published in PMC9698057, “Insights into Antimalarial Activity of N-Phenyl-Substituted Cinnamanilides” (Molecules, 2022).
“And” between values parts separate entries of the source, which are not always exact repeats. Identical values can stand only once. Like-named read-outs stand apart in the source and are kept apart here.

Columns and labels:
[1] = tested on: Plasmodium falciparum 3D7/MRA-102; assay: In vitro antiplasmodial activity; format: cell-based; settings: for IC50: chloroquine-sensitive strain 3D7/MRA-102, 48 h incubation, n = 3, read-out: Pf IC50 ± SD; for antiplasmodial activity in words: P. falciparum 3D7/MRA-102
[2] = Lipophilicity determination by RP-HPLC (log of capacity factor k); format: physicochemical; settings: C18, isocratic methanol 72%/water 28%
Protocol: Among the important parameters characterizing the physicochemical properties of the compounds, we studied the lipophilicity and electronic relations in the molecule. […] The lipophilicity was determined using RP-HPLC as the logarithm of capacity factor k. The retention times of individual compounds were determined under isocratic conditions, with methanol as an organic modifier in the mobile phase using end-capped non-polar C18 stationary RP columns. In addition, the lipophilicity expressed as log P and Clog P was calculated using two commercially available programs: ACD/Percepta ver.
A chromatographic column Symmetry® C18 5 μm, 4.6 × 250 mm, Part No. W21751W016 (Waters Corp., Milford, MA, USA) was used. The HPLC separation process was monitored by the EZ CHROM Elite® software ver. 3.2.0 (Hitachi High Technologies America). The total flow of the column was 1.0 mL/min, injection 10 μL, column temperature 40 °C, and sample temperature 10 °C. The detection wavelength 214 nm was chosen. A KI methanolic solution was used for the dead time (tD) determination. Retention times (tR) were measured in minutes. […] The capacity factors were calculated according to the formula k = (tR − tD)/tD, where tR is the retention time of the solute and tD is the dead time obtained using an unretained analyte. Each experiment was repeated three times.

[3] = tested on: Mycobacterium tuberculosis H37Ra/ATCC 25177; parameters: method as in PMID 30087309, PMID 32916979; settings: M. tuberculosis H37Ra/ATCC 25177; cited from earlier work
[4] = tested on: THP1-Blue™ NF-κB cells; settings: read-out: cytotoxicity IC50; human monocytic leukemia cell line THP1-Blue™ NF-κB; cited from earlier work
[5] = Plasmodium falciparum, 3D7, 48 h

Row | Structure (SMILES) | IC50 [1, 5] [µM] | log k [2] | IC50 [1] [µM] | Mtb MIC [3] [µM] | IC50 [4] [µM] | antiplasmodial activity in words [1]
1 | CCN(CC)CCCC(C)Nc1ccnc2cc(Cl)ccc12 (stereo not shown) [CQ, chloroquine, reference compound] | 0.5 ± 0.2 | – | – | – | – | –
2 | Cc1cccc(NC(=O)/C=C/c2ccccc2)c1 [Compound 2, (2E)-N-(3-methylphenyl)-3-phenyl-prop-2-enamide] | 21.6 | 0.2729 | 21.9 ± 6.3 | 67.4 | – | –
3 | Cc1ccc(NC(=O)/C=C/c2ccccc2)cc1 [Compound 3] | > 35 | 0.2640 | – | 134 | – | –
4 | O=C(/C=C/c1ccccc1)Nc1cccc(C(F)(F)F)c1 [Compound 6] | > 35 | 0.4859 | – | 27.5 | 11.6 ± 1.13 | –
5 | Cc1ccc(C)c(NC(=O)/C=C/c2ccccc2)c1 [Compound 7] | > 35 | 0.2691 | – | 254 | – | –
6 | O=C(/C=C/c1ccccc1)Nc1ccc(Cl)cc1Cl [Compound 8] | > 35 | 0.5278 | – | – | – | inactive
7 | O=C(/C=C/c1ccccc1)Nc1cc(Cl)ccc1Cl [Compound 9] | > 35 | 0.5799 | – | 876 | – | –
8 | O=C(/C=C/c1ccccc1)Nc1c(Cl)cccc1Cl [Compound 10] | > 35 | 0.0632 | – | 876 | – | –
9 | O=C(/C=C/c1ccccc1)Nc1ccc(Cl)c(Cl)c1 [Compound 11] | > 35 | 0.6821 | – | 27.4 | 6.28 ± 2.32 | –
10 | O=C(/C=C/c1ccccc1)Nc1cc(Cl)cc(Cl)c1 [Compound 12] | > 35 | 0.8155 | – | 27.4 | 2.43 ± 1.06 | –
11 | O=C(/C=C/c1ccccc1)Nc1ccc(Br)cc1Br [Compound 13] | > 35 | 0.6152 | – | >339 | – | inactive
12 | O=C(/C=C/c1ccccc1)Nc1c(Br)cccc1Br [Compound 14] | > 35 | 0.0992 | – | 167 | – | –
13 | O=C(/C=C/c1ccccc1)Nc1cc(C(F)(F)F)cc(C(F)(F)F)c1 [Compound 15, (2E)-N-[3,5-bis(trifluoromethyl)phenyl]-3-phenylprop-2-enamide] | 6.5 ± 3.6 | 0.9814 | – | 22.3 | 2.17 ± 1.19 | –
14 | COc1ccc([N+](=O)[O-])cc1NC(=O)/C=C/c1ccccc1 [Compound 16] | > 35 | 0.1581 | – | >859 | – | –
15 | O=C(/C=C/c1ccccc1)Nc1ccc([N+](=O)[O-])cc1C(F)(F)F [Compound 17] | > 35 | 0.3794 | – | >381 | – | –
16 | O=C(/C=C/c1ccccc1)Nc1ccc([N+](=O)[O-])c(C(F)(F)F)c1 [Compound 18, (2E)-N-[4-nitro-3-(trifluoromethyl)phenyl]-3-phenylprop-2-enamide] | 2.2 ± 1.9 | 0.5004 | – | >381 | – | –
17 | O=C(/C=C/c1ccccc1)Nc1cc(Cl)ccc1F [Compound 19] | 16 ± 4.2 | 0.36 and 0.3692 | – | >465 | – | –
18 | O=C(/C=C/c1ccccc1)Nc1cc(Br)ccc1F [Compound 20] | > 35 | 0.4875 | – | 199 | – | –

Row | Structure (SMILES) | IC50 [1, 5] [µM] | log k [2] | IC50 [1] [µM] | Mtb MIC [3] [µM] | IC50 [4] [µM] | antiplasmodial activity in words [1]
19 | O=C(/C=C/c1ccccc1)Nc1ccc(Br)c(F)c1 [Compound 21] | 10.3 ± 4.6 | – | – | >414 | – | –
20 | O=C(/C=C/c1ccccc1)Nc1ccc(C(F)(F)F)c(F)c1 [Compound 22] | 9.3 ± 5.3 | 0.5789 | – | >414 | – | –
21 | O=C(/C=C/c1ccccc1)Nc1cc(F)ccc1Br [Compound 23, (2E)-N-(2-bromo-5-fluorophenyl)-3-phenylprop-2-enamide] | 3.8 ± 0.61 | 0.4588 | – | 199 | – | –
22 | O=C(/C=C/c1ccccc1)Nc1ccc(Br)cc1Cl [Compound 24, (2E)-N-(4-bromo-2-chlorophenyl)-3-phenylprop-2-enamide] | 0.58 ± 0.002 | 0.6710 | – | >766 | – | –
23 | O=C(/C=C/c1ccccc1)Nc1ccc(Br)c(Cl)c1 [Compound 25] | 8.2 ± 4.7 | 0.6611 | – | >383 | 6.5 ± 1 | –
24 | O=C(/C=C/c1ccccc1)Nc1ccc(Cl)cc1Br [Compound 26] | > 35 | 0.5476 | – | >383 | – | –
25 | O=C(/C=C/c1ccccc1)Nc1cc(C(F)(F)F)ccc1Cl [Compound 27] | > 35 | 0.6178 | – | 785 | – | –
26 | O=C(/C=C/c1ccccc1)Nc1cc(C(F)(F)F)ccc1Br [Compound 28] | > 35 | 0.5561 | – | >348 | – | –
27 | O=C(/C=C/c1ccccc1)Nc1ccc(F)cc1C(F)(F)F [Compound 29] | > 35 | 0.1607 | – | >414 | – | –
28 | O=C(/C=C/c1ccccc1)Nc1ccc(Cl)cc1C(F)(F)F [Compound 30] | > 35 | 0.4113 | – | >394 | – | –
29 | O=C(/C=C/c1ccccc1)Nc1ccc(Br)cc1C(F)(F)F [Compound 31] | > 35 | 0.4683 | – | >348 | – | –
30 | O=C(/C=C/c1ccccc1)Nc1c(F)cc(F)cc1F [Compound 32, (2E)-3-phenyl-N-(2,4,6-trifluorophenyl)-prop-2-enamide] | > 35 | −0.0831 | – | >462 | – | –
31 | O=C(/C=C/c1ccccc1)Nc1cc(F)c(F)c(F)c1 [Compound 33] | 4.3 ± 2.4 | 0.4893 | – | >462 | – | –
32 | O=C(/C=C/c1ccccc1)Nc1cc(Cl)c(Cl)cc1Cl [Compound 34] | > 35 | 0.8373 | – | – | – | –
33 | O=C(/C=C/c1ccccc1)Nc1cc(Cl)c(Cl)c(Cl)c1 [Compound 35, (2E)-3-phenyl-N-(3,4,5-trichlorophenyl)prop-2-enamide] | 13 ± 3.8 | 0.9671 | – | >395 | – | –
34 | O=C(/C=C/c1ccccc1)Nc1c(Br)cc(C(F)(F)F)cc1Br [Compound 36, (2E)-N-[2,6-dibromo-4-(trifluoromethyl)-phenyl]-3-phenylprop-2-enamide] | 2 ± 1.9 | 0.4321 | – | >287 | – | –
35 | O=C(/C=C/c1ccccc1)Nc1c(Br)cc(F)c(Cl)c1Br [Compound 37] | > 35 | 0.3139 | – | >298 | – | –
36 | NNC(=O)c1ccncc1 [INH, isoniazid, reference compound] | – | – | – | 36.6 | – | –
